How the values were obtained:
DC2.4 = test: CellTiter-Glo cell viability, DC2.4; type: cell-based, murine; set-up: effect on cell viability: unit of the concentration uncertain
Procedure: (§1) BzFβ was then examined for its effect on the viability of several murine and human cell lines and primary murine splenocytes. The cytotoxicity of BzFβ was assessed using the CellTiter-Glo […] assay system according to manufacturer's instructions to determine BzFβ's effect on the viability of several murine and human cell lines and primary murine splenocytes.
(§2) DC2.4 cell line (Dr. Kenneth Rock, University of Massachusetts), RAW 264.7 cell line (American Type Culture Collection (ATCC), Manassas, VA; TIB 71), and IMG cell line (Millipore™, Merck KGaA, Burlington, MA; cat. no. SC-C134) were each cultured in complete Dulbecco's Modified Eagle Medium (cDMEM) containing […] glucose (Gibco™, Thermo Fisher Scientific Inc., Waltham, MA; cat. no. 10566-016) and supplemented with GlutaMAX, 50 U/mL penicillin and 50 µg/mL streptomycin (Gibco™; cat. no. 15070-063) and 10% heat inactivated fetal bovine serum (FBS) (R&D Systems, Inc., Minneapolis, MN; cat. no. […]
(§3) The cytotoxicity of BzFβ was assessed using the CellTiter-Glo cell […] viability assay system […] cat. no. […] CellTiter-Glo was added 1:1 in the media and the level of chemiluminescence was measured using luminescence at wavelengths of 200 nm to 700 nm through a photomultiplier on BioTek's Synergy HTX multimode microplate reader. […]

HEK293T = test: CellTiter-Glo cell viability, HEK293T; type: cell-based; conditions: Homo sapiens, HEK-293T
Procedure: as §1, §2, §3

[1] = tested on: DC2.4 cells presenting SIINFEKL to B3Z CD8+ T cell hybridoma; test: B3Z activation by SIINFEKL-pulsed DC2.4 (CPRG β-gal assay); type: cell-based, murine
Procedure: DC2.4 cells (2.5×10^4 cells/well) were seeded at 100 μL/well in 96 well tissue culture white sided/white bottom plate and incubated overnight to allow for cell adherence. 37° C. in an atmosphere containing 5% CO2 and 95% humidity. Following pre-treatment of the DC2.4 cells (1-24 h) with escalating doses of the test molecules, the cells were washed, pulsed with 0.5 nM of the MHC class I H-2Kb peptide, SIINFEKL, for 1 h, and then co-cultured with the CD8+ T cell hybridoma, B3Z.
The level of B3Z cell activation and the effects of the various test molecules on B3Z activation were quantified in cell lysates using the β-gal chromogenic substrate, CPRG. The media was removed and 100 μL of 250 μM CPRG reconstituted in the lysis buffer (1×DPBS, 0.2% v/v saponin, 20 mM magnesium chloride) was added directly to each well. Cells were maintained at 37° C. prior to measurement. The absorbance at 560 nm (700 nm for background) was intermittently monitored using a BioTek Synergy HTX multimode microplate reader (Winooski, VT) to detect β-gal activity. CPRG lysis buffer and B3Z cells only served as the negative controls. All treatments were performed in triplicate and all experiments were repeated a minimum of three times.
Activation of B3Z T cell hybridoma cells was assessed following their exposure to various MHC class I H-2K^b positive cell lines presenting the SIINFEKL peptide. B3Z are a CD8+ SIINFEKL peptide specific T-cell hybridoma expressing a beta-galactosidase (β-gal) reporter gene driven by NF-AT elements on the interleukin 2 (IL-2) promoter. […] Activation of B3Z leads to production of β-gal whose presence can be quantified using the optimized detection assay described by Jendresen et al. (Jendresen, et al., An improved CPRG colorimetric ligand-receptor signal transduction assay based on beta-galactosidase activity in mammalian BWZ-reporter cells. J Pharmacol Toxicol Methods. 2018 March-April; 90:67-75).
To stimulate β-gal production in the B3Z, the H-2Kb murine cell lines, DC2.4, B16F10, and E.G7-OVA, or freshly isolated murine splenocytes, were plated at a density of 2.5 or 5×10^4 cells/well (100 μL/well in 96 well plates) and cultured overnight at 37° C. in an atmosphere containing 5% CO2 and 95% humidity. The cells were washed with DPBS and then treated for 1-24 h with the indicated concentrations of BzFβ suspended in complete media. Vehicle controls were always included. […]
To detect activation of the B3Z cells, the media was removed and 100 μL of 250 µM CPRG reconstituted in the lysis buffer (1×DPBS, 0.2% v/v saponin, 20 mM magnesium chloride) was added directly to each well. […] The absorbance at 560 nm (700 nm for background) was intermittently monitored using a BioTek Synergy HTX multimode microplate reader (Winooski, VT) to detect β-gal activity. […]

O=C(O)/C=C/c1ccc2occc2c1 [BzFβ, (2E)-3-(1-benzofuran-5-yl)prop-2-enoic acid]
IC50 (DC2.4; Mus musculus, DC2.4, CellTiter-Glo): 1150 µM
effect on cell viability (DC2.4; all the cell lines examined, except HEK293T, 24 h exposure, concentrations lower than 50 µg/mL (266 (unit uncertain))): small effects on cell viability
IC50 (HEK293T): 432 µM
B3Z response versus peptide pulsed DC2.4 alone ([1]; co-treatment 1 h, 25 μg/mL BzFβ, 15 pM to 1 nM SIINFEKL, 19 h coculture): significantly greater
time to significantly enhanced B3Z activation ([1]; peptide pulsed DC2.4): 5 min
